Measurements from PubChem BioAssay (NCI).
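1) Cells in 96-well plates. 2) Compound, 48 h, 5 concentrations. 3) Linear interpolation between surrounding doses. 4) Unreached endpoint = highest concentration. Here, GI50 denotes the concentration required for 50% inhibition of growth. TGI is the concentration that stops growth completely.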

How the values were obtained:
Assay in all cases: NCI tumour cell line growth inhibition, 48 h
786-0 renal = test system: 786-0 renal
SNB-75 CNS = test system: SNB-75 CNS
CCRF-CEM leukemia = test system: CCRF-CEM leukemia
ACHN renal = test system: ACHN renal
NCI/ADR-RES ovarian = test system: NCI/ADR-RES ovarian
IGROV1 ovarian = test system: IGROV1 ovarian
MDA-MB-231 breast = test system: MDA-MB-231 breast
HCC-2998 colon = test system: HCC-2998 colon
NCI-H522 lung = test system: NCI-H522 lung
CAKI-1 renal = test system: CAKI-1 renal
RPMI-8226 leukemia = test system: RPMI-8226 leukemia

SMILES | TGI (786-0 renal) | TGI (SNB-75 CNS) | TGI (CCRF-CEM leukemia) | TGI (ACHN renal) | TGI (NCI/ADR-RES ovarian) | TGI (IGROV1 ovarian) | TGI (MDA-MB-231 breast) | TGI (HCC-2998 colon) | TGI (NCI-H522 lung) | TGI (CAKI-1 renal) | TGI (RPMI-8226 leukemia) | GI50 (RPMI-8226 leukemia) | GI50 (SNB-75 CNS) | GI50 (CCRF-CEM leukemia) | GI50 (ACHN renal) | GI50 (NCI/ADR-RES ovarian) | GI50 (IGROV1 ovarian) | GI50 (MDA-MB-231 breast) | GI50 (HCC-2998 colon) | GI50 (NCI-H522 lung)
Cc1ccc(C(=O)c2[nH]c(Nc3cc(C)ccn3)c(C(=S)Nc3ccccc3)c2N)cc1 | > 100 µM | > 100 µM | > 100 µM | > 100 µM | > 100 µM | > 100 µM | > 100 µM | > 100 µM | > 100 µM | > 100 µM | – | – | – | – | – | – | – | – | – | –
Cc1cc(C)nc(NS(=O)(=O)c2ccc(Nc3c4ccccc4nc4c(C(=O)N5CCN(CCOS(C)(=O)=O)CC5)ccc(Cl)c34)cc2)n1 | > 100 µM | > 100 µM | > 100 µM | > 100 µM | – | > 100 µM | – | > 100 µM | – | > 100 µM | > 100 µM | – | – | – | – | – | – | – | – | –
CCC1(CC)C(=O)NC(=S)N=C1N | > 100 µM | > 100 µM | > 100 µM | > 100 µM | – | > 100 µM | – | – | > 100 µM | – | > 100 µM | – | – | – | – | – | – | – | – | –
CCNC(=S)N/N=C/c1ccccn1 | > 100 µM | > 100 µM | > 100 µM | 70.7 µM | > 100 µM | > 100 µM | > 100 µM | – | > 100 µM | – | – | – | – | – | – | – | – | – | – | –
NC(=S)N=Nc1c(O)cc(Nc2ccc(Cl)cc2Cl)c2ccccc12 | 26.3 µM | 78.5 µM | – | 27.5 µM | > 100 µM | 88 µM | 27.6 µM | > 100 µM | – | 38.6 µM | – | – | – | – | – | – | – | – | – | –
c1ccc(-c2ccc(N=NN3CCCC3)cc2)cc1 | > 100 µM | > 100 µM | > 100 µM | > 100 µM | > 100 µM | > 100 µM | > 100 µM | – | > 100 µM | > 100 µM | > 100 µM | – | – | – | – | – | – | – | – | –
Nc1nc(Nc2ccc(OCc3cccc(F)c3)cc2)c2c(n1)[nH]c1ccc(O)cc12 | – | 3.01 µM | 9.62 µM | 12 µM | 32 µM | 14.7 µM | 7.33 µM | 13.6 µM | 4.67 µM | – | 5.55 µM | 2.16 µM | 1.53 µM | 3.03 µM | 3.16 µM | 9.46 µM | 3.75 µM | 2.71 µM | 3.46 µM | 1.99 µM
CC12CCC(C/C1=N\NC(N)=O)C2(C)C (stereo unspecified) | > 100 µM | > 100 µM | > 100 µM | > 100 µM | > 100 µM | > 100 µM | – | – | > 100 µM | > 100 µM | > 100 µM | – | – | – | – | – | – | – | – | –
Nc1n[nH]c2ccccc12 | > 100 µM | > 100 µM | > 100 µM | > 100 µM | > 100 µM | > 100 µM | > 100 µM | – | > 100 µM | > 100 µM | > 100 µM | – | – | – | – | – | – | – | – | –
COc1cc2c(cc1OCCCOc1cc3c(cc1OC)C(=O)N1CCC[C@H]1CN3)N=C[C@@H]1CCCN1C2=O | 2.18 µM | 2.89 µM | > 100 µM | 0.359 µM | 24.8 µM | 0.451 µM | 16.6 µM | 0.468 µM | – | 1.88 µM | 0.654 µM | 0.156 µM | – | – | – | – | – | – | 0.172 µM | –
CCOC(=O)c1c(NC(=S)Nc2ccc(C)cc2)sc2c1CCN(C)C2 | > 100 µM | 0.0946 µM | > 100 µM | > 100 µM | > 100 µM | > 100 µM | > 100 µM | – | – | > 100 µM | > 100 µM | – | – | – | – | – | – | – | – | –
O=C1NN=C(c2c[nH]c3ccccc23)CC1NCc1ccccc1 (stereo unspecified) | > 100 µM | > 100 µM | > 100 µM | > 100 µM | > 100 µM | > 100 µM | > 100 µM | – | > 100 µM | > 100 µM | > 100 µM | – | – | – | – | – | – | – | – | –
N#CC(C#N)=Cc1cccc(Oc2ccccc2)c1 | 34.2 µM | > 94.9 µM | > 100 µM | 34.1 µM | – | 67 µM | – | > 62.8 µM | 51.2 µM | 50.4 µM | 62.5 µM | – | – | – | – | – | – | – | – | –
OC(c1ccco1)C(F)(F)c1nc2ccccc2o1 (stereo unspecified) | > 100 µM | > 100 µM | > 100 µM | > 100 µM | > 100 µM | > 100 µM | > 100 µM | > 100 µM | – | > 100 µM | > 100 µM | – | – | – | – | – | – | – | – | –
COC(=O)/C(=N\NC(=S)NN)C(C(=O)C(=O)Nc1ccccc1C(N)=O)c1nc2ccccc2[nH]c1=O (stereo unspecified) | > 100 µM | – | > 100 µM | > 100 µM | – | > 100 µM | – | > 100 µM | > 100 µM | > 100 µM | > 100 µM | – | – | – | – | – | – | – | – | –
O=C1c2c(c3c4ccc(Br)cc4oc3c3[nH]c4ccccc4c23)C(=O)N1O | – | – | > 100 µM | > 100 µM | > 100 µM | – | > 100 µM | > 100 µM | > 100 µM | – | – | – | – | 0.0418 µM | 1.11 µM | 2.64 µM | – | 2.48 µM | 1.94 µM | 1.07 µM
CC1=C(C(=O)NNC(=O)CC#N)CC(C(=O)NNC(=O)CC#N)=C(C)N1 | > 100 µM | > 100 µM | – | > 100 µM | > 100 µM | > 100 µM | > 100 µM | > 100 µM | – | > 100 µM | – | – | – | – | – | – | – | – | – | –
NC(=O)NC(=NCc1ccccc1)NCc1ccccc1 | > 100 µM | – | – | > 100 µM | – | > 100 µM | – | > 100 µM | > 100 µM | > 100 µM | – | – | – | – | – | – | – | – | – | –
COc1cc(-c2c3c(cc4c2OCO4)[C@@H](Nc2ccc4c(c2)Cc2cc(N[C@@H]5c6cc7c(cc6C(c6cc(OC)c(O)c(OC)c6)[C@H]6C(=O)OC[C@H]56)OCO7)ccc2-4)[C@H]2COC(=O)[C@@H]2C3)cc(OC)c1O (stereo partly specified) | 63.7 µM | > 100 µM | > 100 µM | > 100 µM | 42.2 µM | 21.3 µM | > 100 µM | – | – | 88.9 µM | > 100 µM | – | – | – | – | – | – | – | – | –
CC1=CCC[C@H]2[C@](C)(CC3=CC(=O)C4SCCSC4C3=O)[C@@H](C)CC[C@]12C (stereo partly specified) | 35 µM | 80.8 µM | 48.7 µM | 46.1 µM | 47.2 µM | 84.6 µM | 46.7 µM | 55.8 µM | – | 99.2 µM | 41.8 µM | – | – | – | – | – | – | – | – | –
C[C@@H]1C(=O)CC2(O)[C@@]13C[C@@H](OC(=O)[C@@H]3O)[C@@H](C)[C@@]21COC1=O (stereo partly specified) | > 100 µM | > 100 µM | > 100 µM | > 100 µM | > 100 µM | > 100 µM | > 100 µM | > 100 µM | > 100 µM | – | > 100 µM | – | – | – | – | – | – | – | – | –
